Consider 24 compounds from patent publication US20060276464A1, “Diarylsulfone sulfonamides and use thereof” (Wyeth, priority 2005, published 2006).

Assay [1] addresses T1, SFRP-1 (Homo sapiens, UniProt Q8N474).
T1 sequence (Q8N474 32-314): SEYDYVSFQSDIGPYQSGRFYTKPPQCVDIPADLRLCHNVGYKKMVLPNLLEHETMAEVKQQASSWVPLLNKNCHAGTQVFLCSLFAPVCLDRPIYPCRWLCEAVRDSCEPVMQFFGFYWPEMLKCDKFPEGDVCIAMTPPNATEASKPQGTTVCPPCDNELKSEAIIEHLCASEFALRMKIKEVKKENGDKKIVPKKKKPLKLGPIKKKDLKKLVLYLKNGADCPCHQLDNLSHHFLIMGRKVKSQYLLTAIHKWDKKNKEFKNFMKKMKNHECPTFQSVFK
The assay is described as follows: Cell-based assay for in vitro measurement of SFRP-1/SARP2 antagonist activity (U2OS cells co-transfected with 16x TCF-tk-Luciferase reporter, Wnt and hSFRP-1).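 For all read-outs here: U2OS cells co-transfected with a TCF-tk luciferase reporter, a Wnt vector, hSFRP-1 or empty vector and CMV-βgal, luciferase luminescence read in cell lysates alongside βgal activity.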 The note with it: for fold induction at 10 µM: U2OS, read-out: Fold Induction with SFRP-1, U2OS cells, single dose 10 μM, luciferase reporter, fold induction over SFRP-1 control. In general terms: Reporter assays use an easily measured gene product as a stand-in for the process of interest.

Assay [2] deals with T1, SFRP-1. As to the kind of experiment: Fluorescence polarization binding assay (competitive displacement of a probe compound from SFRP-1).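 Note: test compound competes with a fluorescent probe held by SFRP-1, seen as a drop in probe anisotropy after incubation in darkness, with anisotropy as function of rising compound dose.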 Conditions: fluorescence anisotropy, 45 nM SFRP-1, 20 nM probe.

pEC50, pIC50: −log10 of the molar value.

What is called pEC50 is −log10 of the EC50, conventionally taken in molar units. A lower pEC50 goes with a large EC50. One may read the pIC50 as −log10 of the IC50, conventionally taken in molar units. High values mean a low IC50, low ones a high IC50.

With `CC(C)c1ccc(S(=O)(=O)c2ccc(F)cc2)cc1S(=O)(=O)NC1CCN(C(=S)Nc2cccc(C(=O)O)c2)CC1` [Example 700, 3-[({4-[({5-[(4-fluorophenyl)sulfonyl]-2-isopropylphenyl}sulfonyl)amino]piperidin-1-yl}carbonothioyl)amino]benzoic acid], at SFRP-1 [1], the pEC50 is 6.40 and the fold induction at 10 µM came to 1.7. The same compound gave a pIC50 at SFRP-1 [2] of 6.30.
For the compound `CC(C)c1ccc(S(=O)(=O)c2ccc(F)cc2)cc1S(=O)(=O)NC1CCN(C(=S)Nc2cccnc2)CC1` [Example 701, 4-[({5-[(4-fluorophenyl)sulfonyl]-2-isopropylphenyl}sulfonyl)amino]-N-pyridin-3-ylpiperidine-1-carbothioamide], on SFRP-1 [1], the negative-log EC50 (pEC50) was 6.16 and the fold induction at 10 µM was 3. This compound also had a pIC50 on SFRP-1 [2] of 6.15.
For `COc1ccccc1C(=O)N1CCC(NS(=O)(=O)c2cc(S(=O)(=O)c3ccccc3)ccc2C(F)(F)F)CC1` [Example 703, N-[1-(2-methoxybenzoyl)piperidin-4-yl]-5-(phenylsulfonyl)-2-(trifluoromethyl)benzenesulfonamide], in that order: 5.92, 4.8 and 6.80.
For `O=C(c1ccc(F)c(F)c1)N1CCC(NS(=O)(=O)c2cc(S(=O)(=O)c3ccccc3)ccc2C(F)(F)F)CC1` [Example 705, N-[1-(3,4-difluorobenzoyl)piperidin-4-yl]-5-(phenylsulfonyl)-2-(trifluoromethyl)benzenesulfonamide], in that order: 6.10, 3.5 and 6.70.
`O=C(c1cc(F)cc(F)c1)N1CCC(NS(=O)(=O)c2cc(S(=O)(=O)c3ccccc3)ccc2C(F)(F)F)CC1` [Example 706, N-[1-(3,5-difluorobenzoyl)piperidin-4-yl]-5-(phenylsulfonyl)-2-(trifluoromethyl)benzenesulfonamide]: at SFRP-1 [1], the negative logarithm of the EC50 (pEC50) was 6.30 and the fold induction at 10 µM came to 3.7. On SFRP-1 [2], this compound had a negative logarithm of the IC50 (pIC50) of 6.74.
For `COc1cccc(OC)c1C(=O)N1CCC(NS(=O)(=O)c2cc(S(=O)(=O)c3ccccc3)ccc2C(F)(F)F)CC1` [Example 707, N-[1-(2,6-dimethoxybenzoyl)piperidin-4-yl]-5-(phenylsulfonyl)-2-(trifluoromethyl)benzenesulfonamide], in that order: 6.73, 4.2 and 6.70.
For `COc1ccc(C(=O)N2CCC(NS(=O)(=O)c3cc(S(=O)(=O)c4ccccc4)ccc3C(F)(F)F)CC2)c(OC)c1` [Example 708, N-[1-(2,4-dimethoxybenzoyl)piperidin-4-yl]-5-(phenylsulfonyl)-2-(trifluoromethyl)benzenesulfonamide], in that order: 5.93, 3.7 and 6.52.
Take `O=C(c1ccc(OC(F)(F)F)cc1)N1CCC(NS(=O)(=O)c2cc(S(=O)(=O)c3ccccc3)ccc2C(F)(F)F)CC1` [Example 709, 5-(phenylsulfonyl)-N-{1-[4-(trifluoromethoxy)benzoyl]piperidin-4-yl}-2-(trifluoromethyl)benzenesulfonamide]: on SFRP-1 [1], the pEC50 is 5.63 and the fold induction at 10 µM was 4.5. This compound showed a pIC50 at SFRP-1 [2] of 6.40.
As to `O=C(c1ccc(C(F)(F)F)cc1F)N1CCC(NS(=O)(=O)c2cc(S(=O)(=O)c3ccccc3)ccc2C(F)(F)F)CC1` [Example 710, N-{1-[2-fluoro-4-(trifluoromethyl)benzoyl]piperidin-4-yl}-5-(phenylsulfonyl)-2-(trifluoromethyl)benzenesulfonamide], the fold induction at 10 µM on SFRP-1 [1] is 3.5. This compound also gave a pIC50 on SFRP-1 [2] of 6.15.
As for `O=C(c1ccc(C(F)(F)F)c(F)c1)N1CCC(NS(=O)(=O)c2cc(S(=O)(=O)c3ccccc3)ccc2C(F)(F)F)CC1` [Example 711, N-{1-[3-fluoro-4-(trifluoromethyl)benzoyl]piperidin-4-yl}-5-(phenylsulfonyl)-2-(trifluoromethyl)benzenesulfonamide], on SFRP-1 [1], the pEC50 is 5.03 and the fold induction at 10 µM was 3.3. The same compound gave a pIC50 at SFRP-1 [2] of 6.52.
Take `O=C(c1ccc(Cl)c(Cl)c1)N1CCC(NS(=O)(=O)c2cc(S(=O)(=O)c3ccccc3)ccc2C(F)(F)F)CC1` [Example 712, N-[1-(3,4-dichlorobenzoyl)piperidin-4-yl]-5-(phenylsulfonyl)-2-(trifluoromethyl)benzenesulfonamide]: the fold induction at 10 µM on SFRP-1 [1] amounted to 2.9. On SFRP-1 [2], the pIC50 was 6.30.
For the compound `COc1cc(C(=O)N2CCC(NS(=O)(=O)c3cc(S(=O)(=O)c4ccccc4)ccc3C(F)(F)F)CC2)cc(Cl)n1` [Example 715, N-[1-(2-chloro-6-methoxyisonicotinoyl)piperidin-4-yl]-5-(phenylsulfonyl)-2-(trifluoromethyl)benzenesulfonamide], at SFRP-1 [1], the pEC50 is 5.89 and the fold induction at 10 µM was found to be 4.9. Besides, the pIC50 at SFRP-1 [2] was 6.40.
On to `O=C(c1ccc(F)cc1Cl)N1CCC(NS(=O)(=O)c2cc(S(=O)(=O)c3ccccc3)ccc2C(F)(F)F)CC1` [Example 716, N-[1-(2-chloro-4-fluorobenzoyl)piperidin-4-yl]-5-(phenylsulfonyl)-2-(trifluoromethyl)benzenesulfonamide], for which, on SFRP-1 [1], the pEC50 is 5.75 and the fold induction at 10 µM is 4.2. The same compound gave a pIC50 on SFRP-1 [2] of 6.52.
Consider `O=C(c1c(F)cc(F)cc1F)N1CCC(NS(=O)(=O)c2cc(S(=O)(=O)c3ccccc3)ccc2C(F)(F)F)CC1` [Example 717, 5-(phenylsulfonyl)-N-[1-(2,4,6-trifluorobenzoyl)piperidin-4-yl]-2-(trifluoromethyl)benzenesulfonamide], for which, at SFRP-1 [1], the pEC50 was 5.89 and the fold induction at 10 µM worked out at 5.3. The compound also showed a negative logarithm of the IC50 (pIC50) at SFRP-1 [2] of 6.77.
Taken in the same sequence, the figures for `CC(C)(C)c1ccc(C(=O)N2CCC(NS(=O)(=O)c3cc(S(=O)(=O)c4ccccc4)ccc3C(F)(F)F)CC2)cc1` [Example 718, N-[1-(4-tert-butylbenzoyl)piperidin-4-yl]-5-(phenylsulfonyl)-2-(trifluoromethyl)benzenesulfonamide] were 6.67, 6.7 and 6.40.
For `CC(=O)Nc1ccc(C(=O)N2CCC(NS(=O)(=O)c3cc(S(=O)(=O)c4ccccc4)ccc3C(F)(F)F)CC2)cc1` [Example 719, N-(4-{[4-({[5-(phenylsulfonyl)-2-(trifluoromethyl)phenyl]sulfonyl}amino)piperidin-1-yl]carbonyl}phenyl)acetamide], in that order: 6.36, 2.1 and 6.70.
For `O=S(=O)(N[C@H](CO)Cc1ccccc1)c1cc(S(=O)(=O)c2ccccc2)ccc1C(F)(F)F` [Example 720, N-[(1S)-1-benzyl-2-hydroxyethyl]-5-(phenylsulfonyl)-2-(trifluoromethyl)benzenesulfonamide], the fold induction at 10 µM on SFRP-1 [1] was found to be 2. Further, the pIC50 at SFRP-1 [2] was 5.22.
Taken in the same sequence, the figures for `O=S(=O)(N[C@H](CO)Cc1c[nH]c2ccccc12)c1cc(S(=O)(=O)c2ccccc2)ccc1C(F)(F)F` [Example 721, N-[(1S)-2-hydroxy-1-(1H-indol-3-ylmethyl)ethyl]-5-(phenylsulfonyl)-2-(trifluoromethyl)benzenesulfonamide] were 2.7 and 5.70.
For `O=S(=O)(NCCc1ccc[n+]([O-])c1)c1cc(S(=O)(=O)c2ccccc2)ccc1C(F)(F)F` [Example 723, N-[2-(1-oxidopyridin-3-yl)ethyl]-5-(phenylsulfonyl)-2-(trifluoromethyl)benzenesulfonamide], on SFRP-1 [1], the pEC50 is 6.10 and the fold induction at 10 µM is 4.5. On SFRP-1 [2], this compound showed a pIC50 of 6.70.
For `C[C@@H](CO)NS(=O)(=O)c1cc(S(=O)(=O)c2ccccc2)ccc1C(F)(F)F` [Example 725, N-[(1S)-2-hydroxy-1-methylethyl]-5-(phenylsulfonyl)-2-(trifluoromethyl)benzenesulfonamide], in that order: 5.90, 3.1 and 6.30.
As to `C[C@H](CO)NS(=O)(=O)c1cc(S(=O)(=O)c2ccccc2)ccc1C(F)(F)F` [Example 726, N-[(1R)-2-hydroxy-1-methylethyl]-5-(phenylsulfonyl)-2-(trifluoromethyl)benzenesulfonamide], at SFRP-1 [1], the fold induction at 10 µM stood at 3. This compound had a pIC50 on SFRP-1 [2] of 6.10.
Taken in the same sequence, the figures for `CC(C)c1ccc(S(=O)(=O)c2ccc(F)cc2)cc1S(=O)(=O)NCC(O)c1ccccn1` (stereo not shown) [Example 727, 5-[(4-fluorophenyl)sulfonyl]-N-(2-hydroxy-2-pyridin-2-ylethyl)-2-isopropylbenzenesulfonamide] were 3.2 and 5.00.
For `CC(C)c1ccc(S(=O)(=O)c2ccccc2)cc1S(=O)(=O)NCC(O)c1ccccn1` (stereo not shown) [Example 728, N-(2-hydroxy-2-pyridin-2-ylethyl)-2-isopropyl-5-(phenylsulfonyl)benzene-sulfonamide], in that order: 3.1 and 5.40.
Taken in the same sequence, the figures for `Cc1cc(C)c(S(=O)(=O)c2ccccc2)cc1S(=O)(=O)NCC(O)c1ccccn1` (stereo not shown) [Example 729, N-(2-hydroxy-2-pyridin-2-ylethyl)-2,4-dimethyl-5-(phenylsulfonyl)benzenesulfonamide] were 1.7 and 4.82.
